Assay results published in patent US8541167B2 (priority 2004, dated 2013).
Where two headings read alike, the source gives them in different places.

Assays:
[1] = in vivo; cited from earlier work
orthopoxvirus = test system: orthopoxvirus; set-up: species or system A/NCr mice; settings: mouse, in vivo
[2] = test system: live vaccinia virus (Dryvax); set-up: species or system A/NCr mice; settings: mouse, in vivo

Compound	oral bioavailability [1]	post challenge anti-orthopoxvirus antibody titers, presence vs absence of CDV (orthopoxvirus)	pre-challenge anti-orthopoxvirus antibody titers, presence vs absence of CDV (orthopoxvirus)	Lesion score [2]	severity of vaccine lesions and healing [2]	Lesion score ([2]; 12.5 mg/kg)	attenuation of lesion development and acceleration of lesion resolution, compared with CDV [2]
Nc1ccn(C[C@@H](CO)OCP(=O)(O)O)c(=O)n1 [Cidofovir]	low	similar	lower	0	decreased the severity of vaccine lesions and facilitated healing	0	
hexadecyloxypropyl-CDV [HDP-CDV]					decreased the severity of vaccine lesions and facilitated healing		more efficacious than CDV
